Reference: publication PMC9845330 (Communications Biology, 2023)
Entries after “also recorded” stand apart in the source; their conditions may differ. Non-standard residues stand in square brackets, D forms with d. Residues, ends and D or L forms follow the SMILES beside them. *: point of attachment. X1 = O=C(CCCC[C@@H]1SC[C@@H]2NC(=O)N[C@@H]21)NCCCOCCOCCOCCCN*; PEG12 = NCCOCCOCCOCCOCCOCCOCCOCCOCCOCCOCCOCCOCCC(=O)O

Tested on: subcutaneous H2009 tumors
Assay: Tumor homing by near infrared imaging
Assay type: in vivo, mouse
Conditions: for Total Radiant Efficiency: Mean
Method: Use of MGS4 as a delivery agent relies on its ability to target a tumor in an animal. MGS4_V8 and MGS4_V6 (control) were conjugated directly to Alexa Fluor 750. Each conjugate was injected intravenously into immunocompromised mice bearing subcutaneous H2009 tumors, and accumulation of the peptide was measured by near infrared imaging (Fig. 5a). MGS4_V8 tumor homing is observed at 12 h and 85% of that signal is maintained at 24 h. MGS4_V8 signal remains at 48 and 72 h, indicating persistent retention of the dye in the tumor. At all times, MGS4_V8 has 25-40-fold increased signal compared to the control peptide. […] Tumors were fixed in paraformaldehyde followed by whole tumor imaging on a LI-COR® Odyssey (Fig. 5b). A clear visual difference exists between tumors isolated from mice treated with MGS4_V8 compared to those treated with MGS4_V6 control or untreated. Quantification of fluorescence results in a 240-fold higher signal in the MGS4_V8 treated tumors compared to the MGS4_V6 group. Similar results were obtained when subcutaneous H1299 tumors were established in mice (Supplemental Fig. 5).
Fig. 5 MGS4_V8 homes to xenograft tumor after systemic delivery and can deliver saporin resulting in reduced tumor growth. a H2009 tumor bearing nude mice (N = 4) were injected I.V. with MGS4_V8 or MGS4_V6 conjugated to NIR dye Alexa Fluor 750. At 12, 24, 48, and 72 h postinjection, mice were anesthetized and imaged on an IVIS® (Perkin Elmer) to measure total radiant efficiency in each tumor. MGS4_V8 accumulates in tumor 25–39 fold better than control peptide, MGS4_V6. […] Ex vivo NIR imaging of the tumors at the end of the experiment mirrors the data observed in the living animals. […] Data for individual animals is included in Supplementary Table 8. b Excised tumors from the previous experiment were fixed in PBS + 4% formaldehyde and then imaged again together on a LI-COR® Odyssey. Arbitrary fluorescence units (AFU) were determined for each tumor and the average and SEM are shown below the image. The mean fluorescent intensity is 240-fold greater for MGS4_V8-Alexa Fluor 750 conjugate than the MGS4_V6 control conjugate. c Saporin was conjugated to either targeting MGS4_V8 or nontargeting MGS4_V6 and 7.5 µg of the conjugate was injected I.V. into mice bearing subcutaneous tumors. Animals were dosed 2 times per week for 2.5 weeks (indicated by arrows). Tumors were measured every other day. MGS4_V8-saporin clearly slows tumor growth, while nontargeted saporin has no effect compared to untreated animals. Error bars represent SEM, *p-value < 0.05, **p-value < 0.01, ***p-value < 0.001, ****p-value < 0.0001 (two-way ANOVA). d Tumor size (mm3) are shown for individual animals at days 0, 6, 12, and 18. Mean value is represented by the horizontal line and the error bars represent standard error. There is no statistical difference between MGS4_V6-Saporin and untreated at any day. At days 12 and 18 MGS4_V8-Saporin is statistically different than untreated (p-values 0.0099 and 0.0029, respectively) and MGS4_V6-Saporin (p-values 0.0069 and 0.0009, respectively). TEXT PRINTED IN THE PICTURE: (b) MGS4_V8: AFU: 3.3e6 ± 1.1e5; 240-fold | (b) MGS4_V6: AFU: 1.2e4 ± 2.7e3 DOUBTS OF THE COPYIST ABOUT THIS PICTURE: Panel b, 240-fold: printed under a line spanning MGS4_V8 and MGS4_V6; assigned to MGS4_V8 / Panel b, Untreated column (AFU: 1.6e3 ± 4.3e2) left out because it is a control without a substance
Animal experiments were approved by SRI International’s Institutional Animal Care and Use committee (Animal Welfare Assurance Number A3025-01, protocol 14008). H2009 cells (10^6) or H1299 cells (10^6) were implanted subcutaneously on the flank of female Nu/Nu mice (Jackson Laboratory, Bar Harbor, ME). When tumors reached 100 mm^3, in vivo experiments were initiated. For imaging, the indicated peptides were conjugated directly to Alexa Fluor 750 near-infrared dye (Supplemental Fig. 1). Four animals per group were used. […]

For `CC(=O)N[C@@H](Cc1ccccc1)C(=O)N[C@@H](Cc1c[nH]cn1)C(=O)N[C@@H](C)C(=O)N[C@H](C(=O)N1CCC[C@H]1C(=O)N[C@@H](CCC(N)=O)C(=O)N[C@@H](CO)C(=O)N[C@@H](Cc1ccccc1)C(=O)N[C@@H](Cc1ccc(O)cc1)C(=O)N[C@H](C(=O)NCCOCCOCCOCCOCCOCCOCCOCCOCCOCCOCCOCCOCCC(=O)N[C@@H](CCC(=O)NCCCOCCOCCOCCCNC(=O)CCCC[C@@H]1SC[C@@H]2NC(=O)N[C@@H]21)C(N)=O)[C@@H](C)O)C(C)C` [MGS4_V8] (Ac-FHAVPQSFYT[PEG12]E(X1)-NH2), which “Total Radiant Efficiency” value (12 h) is on record?
Its value is 1.58e+010.

And the “tumor signal maintained relative to 12 h” value (24 h, Alexa Fluor 750 conjugate i.v.)?
Its value is 85%.

What about the “Total Radiant Efficiency” value (24 h) of the same molecule?
The value was 1.33e+010.

What about the “Total Radiant Efficiency” value (48 h) of the same molecule?
Its value is 7.91e+009.

What about the “Total Radiant Efficiency” value (72 h (first line)) of the same molecule?
The value was 7.00e+009.

What about the “Total Radiant Efficiency” value (72 h (second line)) of the same molecule?
The value was 2.02e+010.

What about the “fold fluorescence versus MGS4_V6 group” value (excised fixed tumors, 72 h, LI-COR Odyssey) of the same molecule?
Its value is 240 fold.

Which results are given for *HAVPQSFYT** [MGS4_V6]?
Total Radiant Efficiency (12 h): 3.94e+008; Total Radiant Efficiency (24 h): 3.44e+008; Total Radiant Efficiency (48 h): 2.64e+008; Total Radiant Efficiency (72 h (first line)): 2.80e+008; Total Radiant Efficiency (72 h (second line)): 2.00e+009; tumor signal versus untreated tumors (Alexa Fluor 750 conjugate): no statistically significant difference; also recorded: statistically no different than untreated tumors
